Results published in patent US7354927B2, “6H-[1]benzopyrano[4,3-b]quinolines and their use as estrogenic agents” (Wyeth, priority 2004, dated 2008).

Key:
human ERβ = target: T1, human ERβ (Homo sapiens, UniProt Q92731); assay: Competition with [3H]-17β-estradiol for binding to the ERβ ligand binding domain; details: for IC50: E. coli lysate expressing human ERβ LBD, 2 nM [3H]-17β-estradiol, 5-15 hours at room temperature
T1 construct: made in house; host or cells: E. coli (crude lysate)
Description: (§1) Representative examples of the invention were evaluated for their ability to compete with 17β-estradiol for both ERα and ERβ. The test procedure used allows one to determine whether a particular compound binds to the estrogen receptor (and is therefore “estrogenic”) and whether there is selectivity for ERα or ERβ. […] The IC50 is defined as the concentration of compound that decreases total 17β-estradiol binding by 50%. The procedure used is briefly described. A crude lysate of E. coil expressing the estrogen receptor ligand binding domains (D, E, and F) of human ERα or ERβ was prepared. Both receptors and compounds were diluted in 1× Dulbecco's phosphate buffered saline (DPBS) supplemented with 1 mM ethylenediamine tetraacetic acid (EDTA). Using a high binding masked microtiter plate, 100 uL of receptor (1 uG/well) was combined with 2 nM [^3H]-17β-estradiol and various concentrations of compound. After between 5 and 15 hours at room temperature, the plates were washed with DPBS/1 mM EDTA and bound radioactivity determined by liquid scintillation counting.

human ERα = target: T2, human ERα (Homo sapiens, UniProt P03372); assay: Competition with [3H]-17β-estradiol for binding to the ERα ligand binding domain; details: E. coli lysate expressing human ERα LBD; 2 nM [3H]-17β-estradiol; 5-15 hours at room temperature
T2 construct: made in house; host or cells: E. coli (crude lysate)
T2 sequence (P03372 311-547 limits assumed): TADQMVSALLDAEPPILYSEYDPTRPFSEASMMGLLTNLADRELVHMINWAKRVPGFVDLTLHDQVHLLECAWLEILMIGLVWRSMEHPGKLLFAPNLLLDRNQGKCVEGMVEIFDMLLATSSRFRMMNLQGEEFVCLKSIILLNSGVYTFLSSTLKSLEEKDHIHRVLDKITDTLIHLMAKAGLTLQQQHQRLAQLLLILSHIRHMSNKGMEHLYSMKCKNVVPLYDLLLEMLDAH
Description: as §1

T1 sequence (Q92731 264-498 limits assumed): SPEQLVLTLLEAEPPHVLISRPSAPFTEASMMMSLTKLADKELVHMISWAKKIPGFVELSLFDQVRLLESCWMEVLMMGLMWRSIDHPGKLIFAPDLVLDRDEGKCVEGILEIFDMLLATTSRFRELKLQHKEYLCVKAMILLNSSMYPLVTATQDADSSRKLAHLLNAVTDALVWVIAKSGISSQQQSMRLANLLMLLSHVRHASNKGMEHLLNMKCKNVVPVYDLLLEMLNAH

| melting point | IC50 (human ERβ) [nM] | α/β receptor selectivity (ratio of ERα IC50 to ERβ IC50) (human ERβ) | IC50 (human ERα) [nM] | Compound |
| --- | --- | --- | --- | --- |
| 190 to 191 °C |  |  |  | COc1ccc2c(c1)OCc1c-2nc2ccc(OC)cc2c1Cl [Cpd 4, 7-CHLORO-3,9-DIMETHOXY-6H-CHROMENO[4,3-b]QUINOLINE] |
| 196 to 197 °C |  |  |  | COc1ccc2c(c1)OCc1c-2nc2ccc(OC)cc2c1Br [Cpd 5, 7-BROMO-3,9-DIMETHOXY-6H-CHROMENO[4,3-b]QUINOLINE] |
| 235 °C (dec.) | 3.3 | 27 | 88 | Oc1ccc2c(c1)OCc1c-2nc2ccc(O)cc2c1Cl [Cpd 6, 7-CHLORO-3,9-DIHYDROXY-6H-CHROMENO[4,3-b]QUINOLINE] |
| 240 °C (dec.) | 3.6 | 18 | 63 | Oc1ccc2c(c1)OCc1c-2nc2ccc(O)cc2c1Br [Cpd 7, 7-BROMO-3,9-DIHYDROXY-6H-CHROMENO[4,3-b]QUINOLINE] |
| 160 °C (dec.) | 31 | 18 | 548 | C=Cc1c2c(nc3ccc(O)cc13)-c1ccc(O)cc1OC2 [Cpd 8, 3,9-DIHYDROXY-7-VINYL-6H-CHROMENO[4,3-b]QUINOLINE] |
| 220 °C (dec.) | 37 | 3 | 131 | C#Cc1c2c(nc3ccc(O)cc13)-c1ccc(O)cc1OC2 [Cpd 10, 3,9-DIHYDROXY-7-ETHYNYL-6H-CHROMENO[4,3-b]QUINOLINE] |
| 145 °C (dec.) | 5 | 13 | 66 | CCc1c2c(nc3ccc(O)cc13)-c1ccc(O)cc1OC2 [Cpd 11, 3,9-DIHYDROXY-7-ETHYL-6H-CHROMENO[4,3-b]QUINOLINE] |
|  | 5.6 | 7 | 40 | N#Cc1c2c(nc3ccc(O)cc13)-c1ccc(O)cc1OC2 [Cpd 12, 7-CYANO-3,9-DIHYDROXY-6H-CHROMENO[4,3-b]QUINOLINE] |
| 215 to 218 °C (dec.) | 160 | 19 | 3090 | Oc1ccc2c(c1)OCc1c-2nc2ccc(O)cc2c1-c1ccc(Cl)cc1 [Cpd 13, 7-(4-CHLOROPHENYL)-3,9-DIHYDROXY-6H-CHROMENO[4,3-b]QUINOLINE] |
| 295 °C (dec.) | 82 | 17 | 1420 | N#Cc1ccc(-c2c3c(nc4ccc(O)cc24)-c2ccc(O)cc2OC3)cc1 [Cpd 14, 7-(4-CYANOPHENYL)-3,9-DIHYDROXY-6H-CHROMENO[4,3-b]QUINOLINE] |
| 195 °C (dec.) | 61 | 6 | 357 | COc1ccc(-c2c3c(nc4ccc(O)cc24)-c2ccc(O)cc2OC3)cc1 [Cpd 15, 3,9-DIHYDROXY-7-(4-METHOXYPHENYL)-6H-CHROMENO[4,3-b]QUINOLINE] |
| 175 to 177 °C (dec.) | 137 | 44 | 6090 | Oc1ccc2c(c1)OCc1c-2nc2ccc(O)cc2c1-c1ccc(C(F)(F)F)cc1 [Cpd 16, 3,9-DIHYDROXY-7-[4-(TRIFLUOROMETHYL)PHENYL]-6H-CHROMENO[4,3-b]QUINOLINE] |
| 162 to 165 °C (dec.) | 130 | 4 | 505 | Oc1ccc2c(c1)OCc1c-2nc2ccc(O)cc2c1-c1cccc(Cl)c1 [Cpd 17, 7-(3-CHLOROPHENYL)-3,9-DIHYDROXY-6H-CHROMENO[4,3-b]QUINOLINE] |
| 155 to 158 °C (dec.) | 86 | 10 | 820 | COc1cccc(-c2c3c(nc4ccc(O)cc24)-c2ccc(O)cc2OC3)c1 [Cpd 18, 3,9-DIHYDROXY-7-(3-METHOXYPHENYL)-6H-CHROMENO[4,3-b]QUINOLINE] |
| 275 °C (dec.) | 150 | 8 | 1130 | N#Cc1cccc(-c2c3c(nc4ccc(O)cc24)-c2ccc(O)cc2OC3)c1 [Cpd 19, 7-(3-CYANOPHENYL)-3,9-DIHYDROXY-6H-CHROMENO[4,3-b]QUINOLINE] |

| Compound | melting point | IC50 (human ERβ) [nM] | α/β receptor selectivity (ratio of ERα IC50 to ERβ IC50) (human ERβ) | IC50 (human ERα) [nM] |
| --- | --- | --- | --- | --- |
| C[Si](C)(C)C#Cc1c2c(nc3ccc(O)cc13)-c1ccc(O)cc1OC2 [Cpd 9, 3,9-DIHYDROXY-7-[(TRIMETHYLSILYL)ETHYNYL]-6H-CHROMENO[4,3-b]QUINOLINE] | 160 °C (dec.) | 225 | 0.8 | 169 |
